In ChEMBL document CHEMBL1275533, “In vitro antibacterial activity of vertilmicin and its susceptibility to modifications by the recombinant AAC6'-APH2'' enzyme” (2008):
Converted amounts (≈) assume the structure as drawn. The source made the active and inactive calls. The rule behind the calls is not given here.

Columns and labels:
Escherichia coli [1] = test: Antibacterial activity against non-gentamicin-resistant Escherichia coli clinical isolate after 18 hrs by agar dilution method; assay type: functional
Klebsiella aerogenes [2] = test: Antibacterial activity against non-gentamicin-resistant Enterobacter aerogenes clinical isolate after 18 hrs by agar dilution method; assay type: functional
Citrobacter koseri [3] = test: Antibacterial activity against non-gentamicin-resistant Citrobacter diversus clinical isolate after 18 hrs by agar dilution method; assay type: functional
Citrobacter freundii [4] = test: Antibacterial activity against non-gentamicin-resistant Citrobacter freundii clinical isolate after 18 hrs by agar dilution method; assay type: functional
Providencia rettgeri [5] = test: Antibacterial activity against non-gentamicin-resistant Proteus rettgeri clinical isolate after 18 hrs by agar dilution method; assay type: functional
[6] = system: Acinetobacter calcoaceticus; test: Antibacterial activity against non-gentamicin-resistant Acinetobacter calcoaceticus clinical isolate after 18 hrs by agar dilution method; assay type: functional
Pseudomonas aeruginosa [7] = test: Antibacterial activity against non-gentamicin-resistant Pseudomonas aeruginosa clinical isolate after 18 hrs by agar dilution method; assay type: functional
Pseudomonas sp. [8] = test: Antibacterial activity against non-gentamicin-resistant Pseudomonas spp. clinical isolate after 18 hrs by agar dilution method; assay type: functional
Haemophilus influenzae [9] = test: Antibacterial activity against non-gentamicin-resistant Haemophilus influenzae clinical isolate after 18 hrs by agar dilution method; assay type: functional
[10] = system: Haemophilus parainfluenzae; test: Antibacterial activity against non-gentamicin-resistant Haemophilus parainfluenzae clinical isolate after 18 hrs by agar dilution method; assay type: functional
Staphylococcus aureus [11] = test: Antibacterial activity against non-gentamicin-resistant Staphylococcus aureus clinical isolate after 18 hrs by agar dilution method; assay type: functional
Escherichia coli [12] = test: Antibacterial activity against non-gentamicin-resistant Escherichia coli clinical isolate assessed as susceptible isolates after 18 hrs by agar dilution method; assay type: functional
Enterobacter cloacae [13] = test: Antibacterial activity against non-gentamicin-resistant Enterobacter cloacae clinical isolate assessed as susceptible isolates after 18 hrs by agar dilution method; assay type: functional
Klebsiella aerogenes [14] = test: Antibacterial activity against non-gentamicin-resistant Enterobacter aerogenes clinical isolate assessed as susceptible isolates after 18 hrs by agar dilution method; assay type: functional
Citrobacter koseri [15] = test: Antibacterial activity against non-gentamicin-resistant Citrobacter diversus clinical isolate assessed as susceptible isolates after 18 hrs by agar dilution method; assay type: functional
Citrobacter freundii [16] = test: Antibacterial activity against non-gentamicin-resistant Citrobacter freundii clinical isolate assessed as susceptible isolates after 18 hrs by agar dilution method; assay type: functional
Providencia rettgeri [17] = test: Antibacterial activity against non-gentamicin-resistant Proteus rettgeri clinical isolate assessed as susceptible isolates after 18 hrs by agar dilution method; assay type: functional
[18] = system: Acinetobacter calcoaceticus; test: Antibacterial activity against non-gentamicin-resistant Acinetobacter calcoaceticus clinical isolate assessed as susceptible isolates after 18 hrs by agar dilution method; assay type: functional
Pseudomonas aeruginosa [19] = test: Antibacterial activity against non-gentamicin-resistant Pseudomonas aeruginosa clinical isolate assessed as susceptible isolates after 18 hrs by agar dilution method; assay type: functional
Pseudomonas sp. [20] = test: Antibacterial activity against non-gentamicin-resistant Pseudomonas spp. clinical isolate assessed as susceptible isolates after 18 hrs by agar dilution method; assay type: functional
Haemophilus influenzae [21] = test: Antibacterial activity against non-gentamicin-resistant Haemophilus influenzae clinical isolate assessed as susceptible isolates after 18 hrs by agar dilution method; assay type: functional, organism-based
Staphylococcus aureus [22] = test: Antibacterial activity against non-gentamicin-resistant Staphylococcus aureus clinical isolate assessed as susceptible isolates after 18 hrs by agar dilution method; assay type: functional
Enterobacter cloacae [23] = test: Antibacterial activity against gentamicin-resistant Enterobacter cloacae clinical isolate after 18 hrs by agar dilution method; assay type: functional
Citrobacter koseri [24] = test: Antibacterial activity against gentamicin-resistant Citrobacter diversus clinical isolate after 18 hrs by agar dilution method; assay type: functional
Proteus mirabilis [25] = test: Antibacterial activity against gentamicin-resistant Proteus mirabilis clinical isolate after 18 hrs by agar dilution method; assay type: functional
Serratia marcescens = test: Antibacterial activity against gentamicin-resistant Serratia marcescens clinical isolate after 18 hrs by agar dilution method; assay type: functional
Morganella morganii [26] = test: Antibacterial activity against gentamicin-resistant Morganella morganii clinical isolate after 18 hrs by agar dilution method; assay type: functional
Citrobacter freundii [27] = test: Antibacterial activity against gentamicin-resistant Citrobacter freundii clinical isolate after 18 hrs by agar dilution method; assay type: functional
Pseudomonas aeruginosa [28] = test: Antibacterial activity against gentamicin-resistant Pseudomonas aeruginosa clinical isolate after 18 hrs by agar dilution method; assay type: functional
Pseudomonas sp. [29] = test: Antibacterial activity against gentamicin-resistant Pseudomonas spp. clinical isolate after 18 hrs by agar dilution method; assay type: functional
Staphylococcus aureus [30] = test: Antibacterial activity against gentamicin-resistant Staphylococcus aureus clinical isolate after 18 hrs by agar dilution method; assay type: functional
[31] = system: Staphylococcus epidermidis; test: Antibacterial activity against gentamicin-resistant Staphylococcus epidermidis clinical isolate after 18 hrs by agar dilution method; assay type: functional
Enterococcus faecalis [32] = test: Antibacterial activity against gentamicin-resistant Enterococcus faecalis clinical isolate after 18 hrs by agar dilution method; assay type: functional
Escherichia coli [33] = test: Antibacterial activity against gentamicin-resistant Escherichia coli clinical isolate assessed as susceptible isolates after 18 hrs by agar dilution method; assay type: functional
Enterobacter cloacae [34] = test: Antibacterial activity against gentamicin-resistant Enterobacter cloacae clinical isolate assessed as susceptible isolates after 18 hrs by agar dilution method; assay type: functional
Klebsiella aerogenes [35] = test: Antibacterial activity against gentamicin-resistant Enterobacter aerogenes clinical isolate assessed as susceptible isolates after 18 hrs by agar dilution method; assay type: functional
Proteus mirabilis [36] = test: Antibacterial activity against gentamicin-resistant Proteus mirabilis clinical isolate assessed as susceptible isolates after 18 hrs by agar dilution method; assay type: functional
Morganella morganii [37] = test: Antibacterial activity against gentamicin-resistant Morganella morganii clinical isolate assessed as susceptible isolates after 18 hrs by agar dilution method; assay type: functional
Providencia rettgeri [38] = test: Antibacterial activity against gentamicin-resistant Proteus rettgeri clinical isolate assessed as susceptible isolates after 18 hrs by agar dilution method; assay type: functional
Pseudomonas aeruginosa [39] = test: Antibacterial activity against gentamicin-resistant Pseudomonas aeruginosa clinical isolate assessed as susceptible isolates after 18 hrs by agar dilution method; assay type: functional
Pseudomonas sp. [40] = test: Antibacterial activity against gentamicin-resistant Pseudomonas spp. clinical isolate assessed as susceptible isolates after 18 hrs by agar dilution method; assay type: functional
Staphylococcus aureus [41] = test: Antibacterial activity against gentamicin-resistant Staphylococcus aureus clinical isolate assessed as susceptible isolates after 18 hrs by agar dilution method; assay type: functional
[42] = system: Staphylococcus epidermidis; test: Antibacterial activity against gentamicin-resistant Staphylococcus epidermidis clinical isolate assessed as susceptible isolates after 18 hrs by agar dilution method; assay type: functional
Enterococcus faecalis [43] = test: Antibacterial activity against gentamicin-resistant Enterococcus faecalis clinical isolate assessed as susceptible isolates after 18 hrs by agar dilution method; assay type: functional, organism-based
[44] = system: Escherichia coli BL21(DE3); test: Acetylation activity of AAC(6')-APH(2'') in Escherichia coli BL21(DE3) assessed as production of free pyridine-4-thiolate
[45] = system: Escherichia coli BL21(DE3); test: Phosphorylation activity of AAC(6')-APH(2'') in Escherichia coli BL21(DE3) assessed as oxidation of NADH by pyruvate kinase

CCN[C@@H]1C[C@H](N)[C@@H](O[C@H]2OC(CN)=CC[C@H]2N)[C@H](O)[C@H]1O[C@H]1OC[C@](C)(O)[C@H](NC)[C@H]1O [NETILMICIN]
MIC50 (Escherichia coli [1]): 0.5 µg/mL (≈ 1.05 µM) | MIC90 (Escherichia coli [1]): 0.5 µg/mL (≈ 1.05 µM) | MIC50 (Klebsiella aerogenes [2]): 0.5 µg/mL (≈ 1.05 µM) | MIC90 (Klebsiella aerogenes [2]): 1 µg/mL (≈ 2.1 µM) | MIC50 (Citrobacter koseri [3]): 0.5 µg/mL (≈ 1.05 µM) | MIC90 (Citrobacter koseri [3]): 0.5 µg/mL (≈ 1.05 µM) | MIC50 (Citrobacter freundii [4]): 1 µg/mL (≈ 2.1 µM) | MIC90 (Citrobacter freundii [4]): 16 µg/mL (≈ 33.6 µM) | MIC50 (Providencia rettgeri [5]): 2 µg/mL (≈ 4.21 µM) | MIC90 (Providencia rettgeri [5]): 8 µg/mL (≈ 16.8 µM) | MIC50 [6]: 1 µg/mL (≈ 2.1 µM) | MIC90 [6]: 16 µg/mL (≈ 33.6 µM) | MIC50 (Pseudomonas aeruginosa [7]): 8 µg/mL (≈ 16.8 µM) | MIC90 (Pseudomonas aeruginosa [7]): 32 µg/mL (≈ 67.3 µM) | MIC50 (Pseudomonas sp. [8]): 8 µg/mL (≈ 16.8 µM) | MIC90 (Pseudomonas sp. [8]): 32 µg/mL (≈ 67.3 µM) | MIC50 (Haemophilus influenzae [9]): 1 µg/mL (≈ 2.1 µM) | MIC90 (Haemophilus influenzae [9]): 2 µg/mL (≈ 4.21 µM) | MIC50 [10]: 1 µg/mL (≈ 2.1 µM) | MIC90 [10]: 2 µg/mL (≈ 4.21 µM) | MIC50 (Staphylococcus aureus [11]): 0.25 µg/mL (≈ 0.526 µM) | MIC90 (Staphylococcus aureus [11]): 16 µg/mL (≈ 33.6 µM) | Activity (Escherichia coli [12]): 100% | Activity (Enterobacter cloacae [13]): 98.2% | Activity (Klebsiella aerogenes [14]): 98.1% | Activity (Citrobacter koseri [15]): 100% | Activity (Citrobacter freundii [16]): 83.3% | Activity (Providencia rettgeri [17]): 92.3% | Activity [18]: 87.8% | Activity (Pseudomonas aeruginosa [19]): 63.9% | Activity (Pseudomonas sp. [20]): 72.7% | Activity (Haemophilus influenzae [21]): inactive | Activity (Staphylococcus aureus [22]): 88.3% | MIC50 (Enterobacter cloacae [23]): 128 µg/mL (≈ 269 µM) | MIC90 (Enterobacter cloacae [23]): > 128 µg/mL | MIC50 (Citrobacter koseri [24]): > 128 µg/mL | MIC90 (Citrobacter koseri [24]): > 128 µg/mL | MIC50 (Proteus mirabilis [25]): 16 µg/mL (≈ 33.6 µM) | MIC90 (Proteus mirabilis [25]): > 128 µg/mL | MIC50 (Serratia marcescens): > 128 µg/mL | MIC90 (Serratia marcescens): > 128 µg/mL | MIC50 (Morganella morganii [26]): 8 µg/mL (≈ 16.8 µM) | MIC90 (Morganella morganii [26]): 16 µg/mL (≈ 33.6 µM) | MIC50 (Citrobacter freundii [27]): 8 µg/mL (≈ 16.8 µM) | MIC90 (Citrobacter freundii [27]): > 128 µg/mL | MIC50 (Pseudomonas aeruginosa [28]): > 128 µg/mL | MIC90 (Pseudomonas aeruginosa [28]): > 128 µg/mL | MIC50 (Pseudomonas sp. [29]): > 128 µg/mL | MIC90 (Pseudomonas sp. [29]): > 128 µg/mL | MIC50 (Staphylococcus aureus [30]): 16 µg/mL (≈ 33.6 µM) | MIC90 (Staphylococcus aureus [30]): 128 µg/mL (≈ 269 µM) | MIC50 [31]: 2 µg/mL (≈ 4.21 µM) | MIC90 [31]: 32 µg/mL (≈ 67.3 µM) | MIC50 (Enterococcus faecalis [32]): 4 µg/mL (≈ 8.41 µM) | MIC90 (Enterococcus faecalis [32]): > 128 µg/mL | Activity (Escherichia coli [33]): 66.7% | Activity (Enterobacter cloacae [34]): 5.3% | Activity (Klebsiella aerogenes [35]): 30% | Activity (Proteus mirabilis [36]): 36.4% | Activity (Morganella morganii [37]): 41.7% | Activity (Providencia rettgeri [38]): 40% | Activity (Pseudomonas aeruginosa [39]): 2.9% | Activity (Pseudomonas sp. [40]): 0% | Activity (Staphylococcus aureus [41]): 47.2% | Activity [42]: 84.6% | Activity (Enterococcus faecalis [43]): inactive | Km [44]: 304 µM | Km [45]: 308 µM
